Results: the supplement of paper PMC10307832

Columns and labels:
Experiment in all cases: relative viability (nuclei count vs DMSO), 5 days (fraction); higher = more cells survive
[1] = compound: COc1cc2ncn(-c3cc(OCc4ccccc4C(F)(F)F)c(C(N)=O)s3)c2cc1OC + COc1cc2c(Oc3ccc(NC(=O)C4(C(=O)Nc5ccc(F)cc5)CC4)cc3F)ccnc2cc1OCCCN1CCOCC1 [Foretinib] (partner 0.25 µM)
In short: (§1)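 Lung cancer cell lines in 1536-well plates got either a single drug or a fixed anchor-drug dose together with five library-drug doses (not always all listed) in √10 steps, by pin tool, on the day after seeding. Nuclei were counted after 5 days, and relative viability is the treated-to-vehicle ratio of nuclei counts. Values are medians of duplicate plates.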

[2] = compound: COc1cc2ncn(-c3cc(OCc4ccccc4C(F)(F)F)c(C(N)=O)s3)c2cc1OC + NC(=O)Nc1cc(-c2cccc(F)c2)sc1C(=O)N[C@H]1CCCNC1 [AZD7762] (partner 0.2 µM)
In short: as §1

[3] = compound: COc1cc2ncn(-c3cc(OCc4ccccc4C(F)(F)F)c(C(N)=O)s3)c2cc1OC + O=C(CCCCCCC(=O)Nc1ccccc1)NO [Vorinostat] (partner 1 µM)
In short: as §1

[4] = compound: COc1cc2ncn(-c3cc(OCc4ccccc4C(F)(F)F)c(C(N)=O)s3)c2cc1OC + CS(=O)(=O)N1CCN(Cc2cc3nc(-c4cccc5[nH]ncc45)nc(N4CCOCC4)c3s2)CC1 [Pictilisib] (partner 1 µM)
In short: as §1

| Cell Line | relative viability ([1]; first compound 0.05 µM) | relative viability ([1]; first compound 0.1581 µM) | relative viability ([1]; first compound 0.5 µM) | relative viability ([1]; first compound 1.581 µM) | relative viability ([1]; first compound 5 µM) | relative viability ([2]; first compound 0.05 µM) | relative viability ([2]; first compound 0.1581 µM) | relative viability ([2]; first compound 0.5 µM) | relative viability ([2]; first compound 1.581 µM) | relative viability ([2]; first compound 5 µM) | relative viability ([3]; first compound 0.05 µM) | relative viability ([3]; first compound 0.1581 µM) | relative viability ([3]; first compound 0.5 µM) | relative viability ([3]; first compound 1.581 µM) | relative viability ([3]; first compound 5 µM) | relative viability ([4]; first compound 0.05 µM) | relative viability ([4]; first compound 0.1581 µM) | relative viability ([4]; first compound 0.5 µM) | relative viability ([4]; first compound 1.581 µM) | relative viability ([4]; first compound 5 µM) |
| --- | --- | --- | --- | --- | --- | --- | --- | --- | --- | --- | --- | --- | --- | --- | --- | --- | --- | --- | --- | --- |
| HCC-366 | 0.962 | 0.938 | 0.282 | 0.0269 | 0.0243 | 0.51 | 0.431 | 0.385 | 0.0175 | 0.0105 | 0.347 | 0.3 | 0.0923 | 0.0208 | 0.0152 | 0.149 | 0.12 | 0.0681 | 0.0359 | 0.015 |
| NCI-H1975 | 0.932 | 0.961 | 0.516 | 0.155 | 0.138 | 0.737 | 0.751 | 0.564 | 0.433 | 0.261 | 0.501 | 0.631 | 0.272 | 0.166 | 0.134 | 0.285 | 0.324 | 0.257 | 0.133 | 0.157 |
| NCI-H1437 | 1.38 | 1.17 | 0.456 | 0.267 | 0.194 | 1.24 | 1.09 | 0.6 | 0.198 | 0.154 | 0.717 | 0.779 | 0.367 | 0.334 | 0.326 | 0.533 | 0.392 | 0.307 | 0.0976 | 0.0782 |
| NCI-H1651 | 0.832 | 0.893 | 0.655 | 0.118 | 0.102 | 0.415 | 0.518 | 0.32 | 0.37 | 0.303 | 0.504 | 0.51 | 0.309 | 0.164 | 0.324 | 0.662 | 0.7 | 0.616 | 0.111 | 0.102 |
| LCLC-103H | 0.646 | 0.831 | 0.537 | 0.199 | 0.131 | 0.75 | 0.876 | 0.707 | 0.375 | 0.242 | 0.808 | 0.799 | 0.327 | 0.261 | 0.199 | 0.594 | 0.695 | 0.54 | 0.271 | 0.135 |
| NCI-H1666 | 0.927 | 0.832 | 0.507 | 0.393 | 0.354 | 0.84 | 0.881 | 0.8 | 0.555 | 0.483 | 0.954 | 0.998 | 0.584 | 0.561 | 0.527 | 0.404 | 0.38 | 0.332 | 0.188 | 0.193 |
| NCI-H1734 | 0.85 | 1.06 | 0.56 | 0.257 | 0.204 | 0.588 | 0.608 | 0.511 | 0.18 | 0.134 | 0.776 | 0.902 | 0.365 | 0.202 | 0.137 | 0.493 | 0.48 | 0.409 | 0.206 | 0.172 |
| EPLC-272H |  | 0.338 | 0.102 | 0.102 | 0.104 | 0.191 | 0.334 | 0.247 | 0.107 | 0.13 | 0.175 | 0.181 | 0.0719 | 0.077 | 0.12 | 0.354 | 0.202 | 0.287 | 0.173 | 0.135 |
| BEN | 0.559 | 0.557 | 0.623 | 0.271 | 0.307 | 0.788 | 0.735 | 0.678 | 0.464 | 0.389 | 0.643 | 0.591 | 0.413 | 0.33 | 0.3 | 0.653 | 0.557 | 0.471 | 0.223 | 0.233 |
| ABC-1 | 1.2 | 1.08 | 0.758 | 0.225 | 0.239 | 0.782 | 0.487 | 0.741 | 0.631 | 1.01 | 1.59 | 0.849 | 0.58 | 0.369 | 0.305 | 0.645 | 0.791 | 0.634 | 0.284 | 0.229 |
| HCC-15 | 0.98 | 0.919 | 0.334 | 0.16 | 0.124 | 1.18 | 1.05 | 1.03 | 0.21 | 0.154 | 0.618 | 0.769 | 0.349 | 0.139 | 0.127 | 0.69 | 0.707 | 0.549 | 0.163 | 0.125 |
| NCI-H2170 | 0.942 | 0.985 | 0.468 | 0.269 | 0.202 | 0.889 | 0.765 | 0.306 | 0.146 | 0.166 | 0.834 | 0.725 | 0.386 | 0.128 | 0.125 | 0.342 | 0.318 | 0.188 | 0.192 | 0.156 |
| RERF-LC-KJ | 0.957 | 0.901 | 0.791 |  | 0.625 | 1.01 | 1.59 | 0.849 | 0.761 | 0.814 | 0.696 | 0.626 | 0.33 | 0.287 | 0.345 | 0.557 | 0.692 | 0.269 |  | 0.185 |
| NCI-H1993 | 0.652 | 0.884 | 0.662 | 0.579 | 0.569 | 0.921 | 0.814 | 0.53 | 0.418 | 0.381 | 0.725 | 0.736 | 0.384 | 0.389 | 0.348 |  | 0.812 | 0.73 | 0.553 | 0.588 |
| NCI-H358 | 0.724 | 0.71 | 0.484 | 0.0999 | 0.0726 | 0.541 | 0.493 | 0.419 | 0.193 | 0.14 | 0.589 | 0.541 | 0.0993 | 0.0786 | 0.0711 | 0.362 | 0.347 | 0.293 | 0.148 | 0.14 |
| NCI-H1915 | 1.08 | 1.03 | 0.702 | 0.204 | 0.141 | 0.709 | 0.862 | 0.597 | 0.161 | 0.097 | 0.497 | 0.582 | 0.352 | 0.0829 | 0.0666 | 0.988 | 0.857 | 0.799 | 0.111 | 0.0806 |
| LOU-NH91 | 0.933 | 0.978 | 0.754 | 0.423 | 0.713 | 0.774 | 0.818 | 0.638 | 0.41 | 0.277 | 0.903 | 1.04 | 0.683 | 0.365 | 0.29 | 0.554 | 0.544 | 0.51 | 0.399 | 0.418 |
